Measurements published in PubChem BioAssay (NCI).
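Grown in 96-well plates, cells were treated for 48 hours with each compound at five concentrations. Insufficient inhibition: endpoint recorded as highest concentration tested. Here, GI50 denotes the concentration required for 50% inhibition of growth. TGI denotes the concentration required for complete inhibition of growth.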

Key:
Assay in all cases: NCI tumour cell line growth inhibition, 48 h
[1] = tested on: 786-0 renal
[2] = tested on: A498 renal
[3] = tested on: A549 NSCLC
[4] = tested on: ACHN renal
[5] = tested on: BT-549 breast
[6] = tested on: CAKI-1 renal
[7] = tested on: CCRF-CEM leukemia
[8] = tested on: COLO 205 colon
[9] = tested on: DU-145 prostate
[10] = tested on: EKVX NSCLC
[11] = tested on: HCC-2998 colon
[12] = tested on: HCT-116 colon
[13] = tested on: HCT-15 colon
[14] = tested on: HL-60(TB) leukemia
[15] = tested on: HOP-62 NSCLC
[16] = tested on: HOP-92 NSCLC
[17] = tested on: HS 578T breast
[18] = tested on: HT29 colon
[19] = tested on: IGROV1 ovarian
[20] = tested on: K-562 leukemia
[21] = tested on: KM12 colon
[22] = tested on: LOX IMVI melanoma
[23] = tested on: M14 melanoma
[24] = tested on: MALME-3M melanoma
[25] = tested on: MCF7 breast
[26] = tested on: MDA-MB-231 breast
[27] = tested on: MDA-MB-435
[28] = tested on: MOLT-4 leukemia
[29] = tested on: NCI-H226 lung
[30] = tested on: NCI-H23 lung
[31] = tested on: NCI-H460 lung
[32] = tested on: NCI-H522 lung
[33] = tested on: NCI/ADR-RES ovarian
[34] = tested on: OVCAR-3 ovarian
[35] = tested on: OVCAR-4 ovarian
[36] = tested on: OVCAR-5 ovarian
[37] = tested on: OVCAR-8 ovarian
[38] = tested on: PC-3 prostate
[39] = tested on: RPMI-8226 leukemia
[40] = tested on: RXF 393 renal
[41] = tested on: SF-268 CNS
[42] = tested on: SF-295 CNS
[43] = tested on: SF-539 CNS
[44] = tested on: SK-MEL-2 melanoma
[45] = tested on: SK-MEL-28 melanoma
[46] = tested on: SK-MEL-5 melanoma
[47] = tested on: SK-OV-3 ovarian
[48] = tested on: SN12C renal
[49] = tested on: SNB-19 CNS
[50] = tested on: SNB-75 CNS
[51] = tested on: SR leukemia
[52] = tested on: SW-620 colon
[53] = tested on: T-47D breast
[54] = tested on: TK-10 renal
[55] = tested on: U251 CNS
[56] = tested on: UACC-257 melanoma
[57] = tested on: UACC-62 melanoma
[58] = tested on: UO-31 renal

In the case of `C#CC(=O)N(c1ccc(OC)cc1OC)C(C(=O)NCC(=O)OCC)c1cccs1` (stereo unspecified), the GI50 [1] is reported as 19.1 nM, the TGI [1] is reported as 38.9 nM and the GI50 [2] is reported as 215 nM. For the same compound, the TGI [2] was 541 nM, the GI50 [3] was 5560 nM and the TGI [3] was 31700 nM. For the same compound, the GI50 [4] was 114 nM, the TGI [4] was 1250 nM and the GI50 [5] was 318 nM. For the same compound, the TGI [5] was 1190 nM, the GI50 [6] was 187 nM and the TGI [6] was 901 nM. For the same compound, the GI50 [7] was 27.7 nM, the TGI [7] was 81 nM and the GI50 [8] was 1810 nM. It also gave a TGI [8] of 3740 nM, a GI50 [9] of 436 nM and a TGI [9] of 4020 nM. For the same compound, the GI50 [10] was 260 nM, the TGI [10] was 1320 nM and the GI50 [11] was 4980 nM. For the same compound, the TGI [11] was 17700 nM, the GI50 [12] was 1580 nM and the TGI [12] was 3420 nM. It also gave a GI50 [13] of 759 nM, a TGI [13] of 2390 nM and a GI50 [14] of 18.7 nM. For the same compound, the TGI [14] was 38.7 nM, the GI50 [15] was 436 nM and the TGI [15] was 2280 nM. For the same compound, the GI50 [16] was 31.3 nM, the TGI [16] was 110 nM and the GI50 [17] was 444 nM. For the same compound, the TGI [17] was 3260 nM, the GI50 [18] was 241 nM and the TGI [18] was 610 nM. For the same compound, the GI50 [19] was 30 nM, the TGI [19] was 97.9 nM and the GI50 [20] was 594 nM. For the same compound, the TGI [20] was 2960 nM, the GI50 [21] was 372 nM and the TGI [21] was 2240 nM. It also gave a GI50 [22] of less than 12.5 nM, a TGI [22] of less than 18.5 nM and a GI50 [23] of 1880 nM. For the same compound, the TGI [23] was 4540 nM, the GI50 [24] was 66 nM and the TGI [24] was 164 nM. It also gave a GI50 [25] of 2040 nM, a TGI [25] of 9100 nM and a GI50 [26] of 173 nM. The TGI [26] was 1140 nM, the GI50 [27] was 3800 nM and the TGI [27] was 16200 nM. It also gave a GI50 [28] of 375 nM, a TGI [28] of 1950 nM and a GI50 [29] of 11300 nM. For the same compound, the TGI [29] was 38000 nM, the GI50 [30] was 257 nM and the TGI [30] was 1070 nM. It also gave a GI50 [31] of 717 nM, a TGI [31] of 6840 nM and a GI50 [32] of 83.1 nM. For the same compound, the TGI [32] was 258 nM, the GI50 [33] was 177 nM and the TGI [33] was 813 nM. For the same compound, the GI50 [34] was 160 nM, the TGI [34] was 528 nM and the GI50 [35] was 1750 nM. For the same compound, the TGI [35] was 3970 nM, the GI50 [36] was 574 nM and the TGI [36] was 2330 nM. It also gave a GI50 [37] of 970 nM, a TGI [37] of 17900 nM and a GI50 [38] of 871 nM. It also gave a TGI [38] of 7880 nM, a GI50 [39] of 44.9 nM and a TGI [39] of 193 nM. It also gave a GI50 [40] of 271 nM, a TGI [40] of 1010 nM and a GI50 [41] of 326 nM. It also gave a TGI [41] of 1170 nM, a GI50 [42] of 183 nM and a TGI [42] of 362 nM. It also gave a GI50 [43] of 56.7 nM, a TGI [43] of 110 nM and a GI50 [44] of 11000 nM. For the same compound, the TGI [44] was 26200 nM, the GI50 [45] was 2260 nM and the TGI [45] was 6030 nM. For the same compound, the GI50 [46] was 8820 nM, the TGI [46] was 21300 nM and the GI50 [47] was 1820 nM. The TGI [47] was 3400 nM, the GI50 [48] was 2210 nM and the TGI [48] was 16500 nM. For the same compound, the GI50 [49] was 2420 nM, the TGI [49] was 8080 nM and the GI50 [50] was 152 nM. For the same compound, the TGI [50] was 399 nM, the GI50 [51] was 22 nM and the TGI [51] was 52.8 nM. The GI50 [52] was 1270 nM, the TGI [52] was 3050 nM and the GI50 [53] was 2010 nM. The TGI [53] was 5100 nM, the GI50 [54] was 3960 nM and the TGI [54] was 10700 nM. For the same compound, the GI50 [55] was 445 nM, the TGI [55] was 1260 nM and the GI50 [56] was 3290 nM. For the same compound, the TGI [56] was 13000 nM, the GI50 [57] was 1470 nM and the TGI [57] was 5810 nM. The GI50 [58] was 16.7 nM and the TGI [58] was 33.9 nM.
